{"source": "patent US10463713B2", "about": "“Use of AAC-11 inhibitors for the treatment of viral infection” (INSERM (Institut National de la Sante et de la Recherche …, priority 2016, dated 2019)", "key": {"[1]": {"test_system": "cancer cells", "test": "Annexin-V/PI cell death of cancer cell lines under low-serum stress", "format": "cell-based", "conditions": "24 hours, increasing concentrations (FIG. 1)", "experimental": "(§1) The indicated cell lines or blood cells from healthy donors were treated for 24 hours in a 37° C. incubator (5% CO2) with increasing concentrations of the Antp-AAC-11-LZ (377-399) before Annexin-V and PI staining. The percentages refer to Annexin-V-positive or Annexin-V-positive/PI-positive staining.\n(§2) Detection of phosphatidylserine on apoptotic cells was performed by using an AnnexinV/propidium iodide (PI) detection kit (Beckman Coulter, Immunotech, Marseille, France) according to the manufacturer. Briefly, 5×10^5 cells were incubated in the dark at 4° C. with Annexin V-fluorescein isothiocyanate (FITC) and 2.5 μg/mL PI in phosphate buffer for 10 minutes before 18 000 ungated events were collected within the hour by flow cytometry (FACScalibur, BD Biosciences, Mansfield, Mass.) and analyzed with the ProCellQuest software provided by the manufacturer. In HIV-1 infection assays (see below), cell viability was determined with the help of LIVE/DEAD® Fixable Aqua stain kit as recommended by the manufacturer (Molecular Probes, Life Technologies, Saint Aubin, France)."}, "[2]": {"test_system": "HIV-1BX08", "format": "cell-based", "conditions": "increasing amounts of peptide, three days, primary strain HIV-1BX08, human CD4+ T cells (FIG. 4A bottom panel)"}, "[3]": {"test_system": "SIVmac251", "format": "cell-based, SIVmac", "conditions": "increasing amounts of peptide, three days, macaque CD4+ T cells (FIG. 4B)"}, "[4]": {"test_system": "normal cells (blood cells from healthy donors)", "test": "Annexin-V/PI cell death of normal cells / blood cells from healthy donors under low-serum stress", "format": "cell-based", "conditions": "24 hours, increasing concentrations, blood cells from healthy donors (FIG. 1)", "experimental": "as §1, §2"}, "[5]": {"test_system": "VSV-G HIV-1-particles", "format": "cell-based"}, "[6]": {"test_system": "HIV-1 BaL", "format": "cell-based", "conditions": "three days; for HIV-1 replication (p24 antigen in supernatants) / elimination of HIV infected CD4+ T cells: 6 μM peptide, HIV-1 BaL, CD4+ T cells (FIG. 3); for HIV-1 replication (p24 antigen in supernatants) / elimination of HIV infected human CD4+ T cells: increasing amounts of peptide, HIV-1BaL, human CD4+ T cells (FIG. 4A upper panel)"}, "[7]": {"test_system": "HIV-1 BaL", "format": "cell-based", "conditions": "4 or 8 μM; added 10 minutes before infection and washed after two hours, or added two hours after infection and kept three days (FIG. 6)"}}, "data": [{"substance": "Ac-RQIKIWFKKQNRRMKWKKLQYFARGLQVYIRQLRLALQGKT-NH2 [RT39]", "values": [{"measurement": "cell death (Annexin-V-positive or Annexin-V-positive/PI-positive staining) of cancer cells", "setting": "[1]", "result": "induced cancer cells"}, {"measurement": "HIV-1 replication (p24 antigen in supernatants) / elimination of HIV infected human CD4+ T cells", "setting": "[2]", "result": "induce the selective elimination"}, {"measurement": "SIVmac251 replication (p27 antigen in supernatants) / elimination of SIVmac infected macaque CD4+ T cells", "setting": "[3]", "result": "induce the selective elimination"}, {"measurement": "cell death (Annexin-V-positive or Annexin-V-positive/PI-positive staining) of normal cells", "setting": "[4]", "result": "but not normal cells"}, {"measurement": "percentage of GFP+ (infected) cells and of viable cells / elimination of HIV infected CD4+ T cells", "setting": "[5]", "result": "induce the selective elimination"}, {"measurement": "HIV-1 replication (p24 antigen in supernatants) / elimination of HIV infected CD4+ T cells", "setting": "[6]", "result": "induce the selective elimination"}, {"measurement": "HIV-1 replication (p24 antigen in supernatants) / elimination of HIV infected human CD4+ T cells", "setting": "[6]", "result": "induce the selective elimination"}]}, {"substance": "RQIKIWFKKQNRRMKWKKAKLNAEKLKDFKIRLQYFARGLQVYIRQLRLALQGKT (Synthetic Antp-AAC-11-LZ (363-399) (RT53))", "values": [{"measurement": "HIV-1 replication (p24 antigen in supernatants) / elimination of HIV infected human CD4+ T cells", "setting": "[2]", "result": "induce the selective elimination"}, {"measurement": "HIV-1 infection of human macrophages", "setting": "[7]", "result": "block HIV-1 infection in human macrophages"}, {"measurement": "SIVmac251 replication (p27 antigen in supernatants) / elimination of SIVmac infected macaque CD4+ T cells", "setting": "[3]", "result": "induce the selective elimination"}, {"measurement": "percentage of GFP+ (infected) cells and of viable cells / elimination of HIV infected CD4+ T cells", "setting": "[5]", "result": "induce the selective elimination"}, {"measurement": "HIV-1 replication (p24 antigen in supernatants) / elimination of HIV infected CD4+ T cells", "setting": "[6]", "result": "induce the selective elimination"}, {"measurement": "HIV-1 replication (p24 antigen in supernatants) / elimination of HIV infected human CD4+ T cells", "setting": "[6]", "result": "induce the selective elimination"}]}, {"substance": "RQIKIWFKKQNRRMKWKKYFARGLQVYIRQL (Synthetic Antp-AAC-11-LZ (379-391) (RL29))", "values": [{"measurement": "HIV-1 replication (p24 antigen in supernatants) / elimination of HIV infected CD4+ T cells", "setting": "[6]", "result": "induce the selective elimination"}]}]}
